Assay: in vitro
Conditions: human, hela cells, % viability

O=C(Nc1cccc2nsnc12)c1ccc(Cl)cc1 [CBK263793]
viability at 28.5 h, 10 µM: 96.1%

O=C(O)CN1C(=O)C(O)=C(C(=O)c2ccc(Cl)cc2)C1c1ccccc1[N+](=O)[O-] (stereo not shown) [CBK263794]
viability at 28.5 h, 10 µM: 98.5%

Nc1c(C(=O)O)nnn1Cc1ccccc1 [CBK263796]
viability at 28.5 h, 10 µM: 95.6%

O=C1CC(Sc2ccccc2)C(=O)N1c1ccc(Cc2ccc(N3C(=O)CC(Sc4ccccc4)C3=O)cc2)cc1 (stereo not shown) [CBK263797]
viability at 28.5 h, 10 µM: 110%

COc1ccc(N2C(=O)/C(=C/c3cc(C)n(-c4ccc(N5CCOCC5)cc4)c3C)C(=O)NC2=S)cc1 [CBK263798]
viability at 28.5 h, 10 µM (bulk resorufin, single well): 89.7%

CCOc1ccccc1N(CC(=O)Nc1ccc(C)cc1C)S(C)(=O)=O [CBK263799]
viability at 28.5 h, 10 µM: 96%

O=C(CCSc1ccc(Cl)cc1)NCCc1ccccc1 [CBK263800]
viability at 28.5 h, 10 µM: 86.4%

O=C(COc1ccc2ccccc2c1)Nc1ccc(S(=O)(=O)N2CCc3ccccc32)cc1 [CBK263802]
viability at 28.5 h, 10 µM: 91.5%

O=C(O)c1ccc(Nc2ncnc3c2cnn3Cc2ccccc2)cc1 [CBK263803]
viability at 28.5 h, 10 µM: 92.1%

O=C(CSC1=NC(=O)C(c2ccccc2)C(=O)N1)NC1CCCCC1 (stereo not shown) [CBK263804]
viability at 28.5 h, 10 µM: 103%

O=C1NC(=O)N(c2ccc3c(c2)OCO3)C(=O)/C1=C/c1ccc(OCc2cccc(C(=O)O)c2)cc1 [CBK263805]
viability at 28.5 h, 10 µM (bulk resorufin, single well): 106%

CN(C)CCCNC(=O)CCc1ccccc1 [CBK263806]
viability at 28.5 h, 10 µM: 93%

O=C(O)CCCN1C(=O)C(O)=C(C(=O)c2ccc([N+](=O)[O-])cc2)C1c1ccccc1F (stereo not shown) [CBK263810]
viability at 28.5 h, 10 µM: 97.8%

CC(Oc1ccccc1)C(=O)NCCN1CCOCC1 (stereo not shown) [CBK263812]
viability at 28.5 h, 10 µM: 94.1%

CCOc1cc(/C=C2\SC(=N)NC2=O)ccc1OCc1ccc(Br)cc1 [CBK263813]
viability at 28.5 h, 10 µM: 97.7%

Cc1ccc(OCC(=O)Nc2cccc3nsnc23)c(C)c1 [CBK263816]
viability at 28.5 h, 10 µM: 102%

COC(=O)c1ccccc1NC(=O)CCSc1ccc(Cl)cc1 [CBK263817]
viability at 28.5 h, 10 µM: 109%

COC(=O)c1ccccc1NC(=O)CSc1nc(C)cc(C)n1 [CBK263818]
viability at 28.5 h, 10 µM: 96.2%

O=[N+]([O-])c1ccc(N2CCN(S(=O)(=O)c3ccccc3)CC2)cc1Sc1cccc2cccnc12 [CBK263821]
viability at 28.5 h, 10 µM: 100%

Cc1ccc(C(=O)C2=C(O)C(=O)N(CCO)C2c2ccccc2[N+](=O)[O-])cc1 (stereo not shown) [CBK263822]
viability at 28.5 h, 10 µM: 97.1%

COc1ccc(Cl)cc1NC(=O)C(=O)NCC1CCCO1 (stereo not shown) [CBK263823]
viability at 28.5 h, 10 µM: 91.8%

COc1ccccc1NC(=O)c1c(NC(=O)c2cc([N+](=O)[O-])ccc2Cl)sc2c1CCCC2 [CBK263827]
viability at 28.5 h, 10 µM: 88.7%

O=C(O)CSc1nnc(-c2sc3ccccc3c2Cl)n1-c1ccccc1 [CBK263830]
viability at 28.5 h, 10 µM: 92.9%

CC1(C)CC2CC(C)(CN2Cc2c(O)ccc3cc(-c4nc(-c5ccc(Br)cc5)cs4)c(=O)oc23)C1 (stereo not shown) [CBK263831]
viability at 28.5 h, 10 µM: 103%

O=C(O)CSc1nnc(C2COc3ccccc3O2)n1-c1ccccc1 (stereo not shown) [CBK263832]
viability at 28.5 h, 10 µM: 104%

COc1ccc(Cl)cc1NC(=O)C(=O)NCc1ccccn1 [CBK263837]
viability at 28.5 h, 10 µM: 90.2%

CCOC(=O)c1c(C)oc2ccc(O)c(CN3CCCCC3)c12 [CBK263838C]
viability at 28.5 h, 10 µM: 103%

CN(Cc1ccccc1)c1nc2ccccn2c(=O)c1/C=C1/SC(=S)N(CCc2ccccc2)C1=O [CBK263839]
viability at 28.5 h, 10 µM: 112%

Cc1ccc(S(=O)(=O)NC(C)(C)C(=O)O)cc1 [CBK263840]
viability at 28.5 h, 10 µM: 88.8%

CCOC(=O)c1c(C)oc2ccc(OCC(=O)c3ccc(Br)cc3)cc12 [CBK263841]
viability at 28.5 h, 10 µM: 92.4%

O=C1NC(=O)N(c2ccc(O)cc2)C(=O)/C1=C/c1ccc(OCc2ccc(Cl)cc2Cl)cc1 [CBK263842]
viability at 28.5 h, 10 µM (bulk resorufin, single well): 92.1%

Cc1cccc(OC(=O)C2C(c3ccccc3)C(C(=O)O)C2c2ccccc2)c1 (stereo not shown) [CBK263843]
viability at 28.5 h, 10 µM: 94%

CC(C)(C)c1cc(C(=O)N/N=C/c2ccc(O)c([N+](=O)[O-])c2)[nH]n1 [CBK263844]
viability at 28.5 h, 10 µM: 98.4%

Cc1ccc(C2NS(=O)(=O)NC2=N)cc1 (stereo not shown) [CBK263848]
viability at 28.5 h, 10 µM: 95.2%
